The OPERA property sets (Mansouri et al. 2018)
In brackets after ≈: the same amount, converted by molar mass.

Conditions: for log10 BCF / log10 biotransformation half-life (days): fish

| SMILES | boiling point | melting point | also measured |
| --- | --- | --- | --- |
| CC1CCCSC1 (configuration not stated) | 158 °C | -60 °C |  |
| CCCCOS(=O)(=O)OCCCC |  |  | log10 vapour pressure (mmHg): -1.93 |
| O=c1cc(-c2ccccc2)oc2ccccc12 |  | 100 °C |  |
| O=C1NCc2ccccc21 | 338 °C | 151 °C |  |
| Cc1ccc(O)c(C)c1C | 236 °C | 81 °C |  |
| CCCOCCN(C(=O)CCl)c1c(CC)cccc1CC |  |  | log10 Henry constant (atm·m³/mol): -8.1; log10 vapour pressure (mmHg): -6 |
| Fc1ccc(-c2ccccc2)cc1 | 253 °C | 74.2 °C |  |
| Clc1ccc(Cl)c(Oc2ccccc2)c1Cl |  |  | log10 vapour pressure (mmHg): -3.55 |
| Cc1cc(NS(=O)(=O)c2ccc(N)cc2)n(-c2ccccc2)n1 |  | 195 °C |  |
| C#C[C@]1(O)CC[C@H]2[C@@H]3CCC4=CC(=O)CC[C@@H]4[C@H]3CC[C@@]21CC |  | 223 °C |  |
| CCCCNCCO | 199 °C | -2 °C |  |
| ClC(COCC(Cl)C(Cl)(Cl)Cl)C(Cl)(Cl)Cl (configuration not stated) |  | -50 °C | ready biodegradability: not readily biodegradable; log10 BCF: 3.28 |
| O=[N+]([O-])c1ccc(Nc2ccccc2)c([N+](=O)[O-])c1 |  | 159 °C | log10 vapour pressure (mmHg): -8.52 |
| O=Nc1ccccc1 |  | 68.5 °C |  |
| CCOc1ccc([N+](=O)[O-])cc1N |  | 96.5 °C |  |
| FC(F)(F)C(F)(F)C(F)(F)C(F)(F)C(F)(F)C(F)(F)OC(F)(F)C(F)(F)C(F)(F)C(F)(F)C(F)(F)C(F)(F)F | 181 °C | -90 °C |  |
| CCCCCCO[N+](=O)[O-] | 171 °C |  | log10 Henry constant (atm·m³/mol): -2.83; log10 vapour pressure (mmHg): 0.199 |
| CC[N+](C)(CC)CCOC(=O)C1c2ccccc2Oc2ccccc21.[Br-] |  | 174 °C |  |
| CO[C@H]1O[C@H](CO)[C@@H](O)[C@H](O)[C@H]1O |  | 168 °C |  |
| CCCCCCCCCCCCCCCCOCCCCCCCCCCCCCCCC |  | 55 °C | ready biodegradability: not readily biodegradable |
| CCC1(C)OC(=O)NC1=O (configuration not stated) |  | 46 °C |  |
| CCCOCC(C)C | 107 °C |  |  |
| O=S(=O)(c1ccc(O)cc1)c1ccc(O)cc1 |  | 240 °C | ready biodegradability: not readily biodegradable |

| SMILES | boiling point | melting point | also measured |
| --- | --- | --- | --- |
| Oc1ccc(Br)c2cccnc12 |  | 124 °C |  |
| O=C(CCNNC(=O)c1ccncc1)NCc1ccccc1 |  | 152 °C |  |
| CCCCCCCCCCCCCCCCCC(=O)Nc1ccc(O)cc1 |  | 134 °C |  |
| O=C(O)CCC(=O)c1ccc(C2CCCCC2)c(Cl)c1 |  | 163 °C |  |
| Clc1ccc(C(c2ccccc2Cl)C(Cl)(Cl)Cl)cc1 (configuration not stated) |  |  | log10 Koa: 9.45; log10 vapour pressure (mmHg): -5.87; log10 biotransformation half-life (days): 1.71 |
| Ic1cccc(-c2ccccc2)c1 |  | 26.5 °C |  |
| O=C(c1ccccc1)C(O)c1ccccc1 (configuration not stated) |  |  | ready biodegradability: readily biodegradable |
| Cc1ccc(F)cc1 | 117 °C | -56 °C | log10 vapour pressure (mmHg): 1.32 |
| CSC | 37.3 °C | -98.3 °C | log10 Henry constant (atm·m³/mol): -2.79; log10 vapour pressure (mmHg): 2.7 |
| C#CCN1C(=O)COc2cc(F)c(N3C(=O)C4=C(CCCC4)C3=O)cc21 |  | 202 °C |  |
| CCSSCC | 154 °C | -102 °C | log10 Henry constant (atm·m³/mol): -2.67; log10 vapour pressure (mmHg): 0.631; solubility: 2450 µM (≈ 300 µg/mL) |
| O=C(C=Cc1ccccc1)OCC=Cc1ccccc1 |  | 44 °C |  |
| CCCN(CCC)c1c([N+](=O)[O-])cc(C(F)(F)F)c(N)c1[N+](=O)[O-] |  | 124 °C | log10 Koc (L/kg): 4.11; log10 vapour pressure (mmHg): -7.61 |
| CCC(CC)COC(=O)CCCCCCCC(=O)OCC(CC)CC |  | -45 °C |  |
| CN1C(=O)c2ccc([N+](=O)[O-])cc2C1=O | 361 °C |  |  |
| CC(C)=CCC[C@@H](C)CC=O | 207 °C |  |  |
| CCCCCCCCC1CCCCC1 | 264 °C | -20 °C | log10 vapour pressure (mmHg): -2.04; log10 biotransformation half-life (days): 1.1 |
| O=[N+]([O-])c1ccc(O)c([N+](=O)[O-])c1 |  | 116 °C | log10 Henry constant (atm·m³/mol): -7.07; log10 vapour pressure (mmHg): -3.41; ready biodegradability: not readily biodegradable; log10 BCF: 0.57 |
| CC1CCCC(C)C1O (configuration not stated) | 176 °C | 32.5 °C |  |
| c1ccccc1 | 80 °C |  | log10 Henry constant (atm·m³/mol): -2.26; log10 Koa: 2.78; log10 Koc (L/kg): 1.75; log10 biodegradation half-life (days): 0.778; log10 vapour pressure (mmHg): 1.98; ready biodegradability: readily biodegradable; log10 BCF: 0.63 |
| FC(F)(Cl)C(Cl)Cl | 71.9 °C |  |  |
| FC(F)OC(F)(F)C(F)Cl (configuration not stated) | 56.5 °C |  |  |
